Experimental data from patent publication US8153809B2, “Dihydropyridone ureas as P2X7 modulators” (Roche Palo Alto LLC, priority 2008, dated 2012).

target: T1, P2X7 (UniProt Q99572); assay: pIC50 values for P2X7 (Table 1); format: cell-based
T1 sequence (Q99572 1-595): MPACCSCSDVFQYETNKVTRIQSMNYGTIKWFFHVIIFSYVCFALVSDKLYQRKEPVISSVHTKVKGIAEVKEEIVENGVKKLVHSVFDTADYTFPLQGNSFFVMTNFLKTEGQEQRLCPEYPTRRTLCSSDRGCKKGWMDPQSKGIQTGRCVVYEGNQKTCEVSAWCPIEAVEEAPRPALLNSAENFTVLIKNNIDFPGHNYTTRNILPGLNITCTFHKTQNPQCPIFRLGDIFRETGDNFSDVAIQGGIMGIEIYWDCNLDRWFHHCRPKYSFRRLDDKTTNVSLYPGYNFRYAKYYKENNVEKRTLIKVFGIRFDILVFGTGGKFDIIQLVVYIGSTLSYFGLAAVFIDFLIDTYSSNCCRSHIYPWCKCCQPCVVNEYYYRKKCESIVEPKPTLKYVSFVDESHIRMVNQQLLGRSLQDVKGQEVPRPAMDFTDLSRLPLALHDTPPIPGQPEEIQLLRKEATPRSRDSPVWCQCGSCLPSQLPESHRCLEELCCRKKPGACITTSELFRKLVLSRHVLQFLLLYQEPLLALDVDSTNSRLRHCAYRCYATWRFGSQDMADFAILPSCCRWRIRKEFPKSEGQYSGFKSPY
Method in brief: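 Fluo-3-loaded 1321N1 cells expressing human P2X7 or HEK293 cells expressing rat P2X7, preincubated 20 min at room temperature with antagonist in HBSS/Hepes/probenecid buffer with 2 mM CaCl2. BzATP agonist at 100 μM final (human) or 5 μM final (rat); fluorescence read 5 min, peak normalized to 5 μM ionomycin response.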

pIC50	SMILES
6.67	Cc1cc(Br)c(NC(=O)N2C=CC(=O)C[C@H]2c2ccc(F)cc2)cc1C(=O)OC(C)(C)C [Compound 77, 4-Bromo-5-{[(S)-2-(4-fluoro-phenyl)-4-oxo-3,4-dihydro-2H-pyridine-1-carbonyl]amino}-2-methyl-benzoic acid tert-butyl ester]
7.675	COc1cc(NC(=O)N2C=CC(=O)C[C@H]2c2cc(F)cc(F)c2)c(Br)cc1C [Compound 78, (S)-2-(3,5-Difluoro-phenyl)-4-oxo-3,4-dihydro-2H-pyridine-1-carboxylic acid (2-bromo-5-methoxy-4-methyl-phenyl)-amide]
5.475	COc1cc(NC(=O)N2C=CC(=O)C[C@@H]2c2cc(F)cc(F)c2)c(Br)cc1C [Compound 79, (R)-2-(3,5-Difluoro-phenyl)-4-oxo-3,4-dihydro-2H-pyridine-1-carboxylic acid (2-bromo-5-methoxy-4-methyl-phenyl)-amide]
5	COc1cc(NC(=O)N2C=CC(=O)CC2c2ccc(F)cc2)cc(OC)c1OC (stereo not shown) [Compound 80, 2-(4-Fluoro-phenyl)-4-oxo-3,4-dihydro-2H-pyridine-1-carboxylic acid (3,4,5-trimethoxy-phenyl)-amide]
7.54	COc1cc(NC(=O)N2C=CC(=O)C[C@H]2c2ccc(F)c(F)c2)c(Br)cc1C [Compound 81, (S)-2-(3,4-Difluoro-phenyl)-4-oxo-3,4-dihydro-2H-pyridine-1-carboxylic acid (2-bromo-5-methoxy-4-methyl-phenyl)-amide]
5.31	COc1cc(NC(=O)N2C=CC(=O)C[C@@H]2c2ccc(F)c(F)c2)c(Br)cc1C [Compound 82, (R)-2-(3,4-Difluoro-phenyl)-4-oxo-3,4-dihydro-2H-pyridine-1-carboxylic acid (2-bromo-5-methoxy-4-methyl-phenyl)-amide]
7.56	C[C@H](O)c1cc(NC(=O)N2C=CC(=O)C[C@H]2c2ccc(F)cc2)c(Br)cc1Cl [Compound 83, (S)-2-(4-Fluoro-phenyl)-4-oxo-3,4-dihydro-2H-pyridine-1-carboxylic acid [2-bromo-4-chloro-5-((S)-1-hydroxy-ethyl)-phenyl]-amide]
6.67	C[C@@H](O)c1cc(NC(=O)N2C=CC(=O)C[C@H]2c2ccc(F)cc2)c(Br)cc1Cl [Compound 84, (S)-2-(4-Fluoro-phenyl)-4-oxo-3,4-dihydro-2H-pyridine-1-carboxylic acid [2-bromo-4-chloro-5-((R)-1-hydroxy-ethyl)-phenyl]-amide]
5	O=C1C=CN(C(=O)Nc2c(F)cc(F)cc2Br)C(c2ccc(F)cc2)C1 (stereo not shown) [Compound 85, 2-(4-Fluoro-phenyl)-4-oxo-3,4-dihydro-2H-pyridine-1-carboxylic acid (2-bromo-4,6-difluoro-phenyl)-amide]
6.725	O=C1C=CN(C(=O)Nc2ccsc2Br)C(c2ccc(F)cc2)C1 (stereo not shown) [Compound 86, 2-(4-Fluoro-phenyl)-4-oxo-3,4-dihydro-2H-pyridine-1-carboxylic acid (2-bromo-thiophen-3-yl)-amide]
8.36	CCc1cc(OC)c(OC)cc1NC(=O)N1C=CC(=O)C[C@H]1c1ccc(F)cc1 [Compound 87, (S)-2-(4-Fluoro-phenyl)-4-oxo-3,4-dihydro-2H-pyridine-1-carboxylic acid (2-ethyl-4,5-dimethoxy-phenyl)-amide]
6.32	COc1ccc(NC(=O)N2C=CC(=O)C[C@H]2c2cccc(F)c2)cc1OC [Compound 88, (S)-2-(3-Fluoro-phenyl)-4-oxo-3,4-dihydro-2H-pyridine-1-carboxylic acid (3,4-dimethoxy-phenyl)-amide]
7.45	COc1ccc(NC(=O)N2C=CC(=O)C[C@H]2c2ccc(F)cc2)c(Br)c1 [Compound 89, (S)-2-(4-Fluoro-phenyl)-4-oxo-3,4-dihydro-2H-pyridine-1-carboxylic acid (2-bromo-4-methoxy-phenyl)-amide]
6.615	O=C1C=CN(C(=O)Nc2ccc3cc[nH]c3c2)C(c2ccc(F)cc2)C1 (stereo not shown) [Compound 90, 2-(4-Fluoro-phenyl)-4-oxo-3,4-dihydro-2H-pyridine-1-carboxylic acid (1H-indol-6-yl)-amide]
6.315	Cc1cc2cc(NC(=O)N3C=CC(=O)CC3c3ccc(F)cc3)ccc2o1 (stereo not shown) [Compound 91, 2-(4-Fluoro-phenyl)-4-oxo-3,4-dihydro-2H-pyridine-1-carboxylic acid (2-methyl-benzofuran-5-yl)-amide]
8.023	Cc1cc(Cl)c(OCCO)cc1NC(=O)N1C=CC(=O)C[C@H]1c1ccc(F)cc1 [Compound 92, (S)-2-(4-Fluoro-phenyl)-4-oxo-3,4-dihydro-2H-pyridine-1-carboxylic acid [4-chloro-5-(2-hydroxy-ethoxy)-2-methyl-phenyl]-amide]

pIC50	SMILES
7.44	COC(=O)c1cccc(NC(=O)N2C=CC(=O)C[C@H]2c2ccc(F)cc2)c1C [Compound 93, 3-{[(S)-2-(4-Fluoro-phenyl)-4-oxo-3,4-dihydro-2H-pyridine-1-carbonyl]-amino}-2-methyl-benzoic acid methyl ester]
6.13	COC(=O)c1cccc(NC(=O)N2C=CC(=O)C[C@@H]2c2ccc(F)cc2)c1C [Compound 94, 3-{[(R)-2-(4-Fluoro-phenyl)-4-oxo-3,4-dihydro-2H-pyridine-1-carbonyl]-amino}-2-methyl-benzoic acid methyl ester]
7.9775	Cc1ccc(C)c(NC(=O)N2C=CC(=O)C[C@H]2c2ccc(F)cc2)c1 [Compound 95, (S)-2-(4-Fluoro-phenyl)-4-oxo-3,4-dihydro-2H-pyridine-1-carboxylic acid (2,5-dimethyl-phenyl)-amide]
7.875	COc1ccc(Br)c(NC(=O)N2C=CC(=O)C[C@H]2c2ccc(F)cc2)c1 [Compound 96, (S)-2-(4-Fluoro-phenyl)-4-oxo-3,4-dihydro-2H-pyridine-1-carboxylic acid (2-bromo-5-methoxy-phenyl)-amide]
7.74	Cc1cccc(NC(=O)N2C=CC(=O)C[C@H]2c2ccc(F)cc2)c1C [Compound 97, (S)-2-(4-Fluoro-phenyl)-4-oxo-3,4-dihydro-2H-pyridine-1-carboxylic acid (2,3-dimethyl-phenyl)-amide]
7.475	O=C1C=CN(C(=O)Nc2cc(CO)c(Cl)cc2Br)[C@H](c2ccc(F)cc2)C1 [Compound 98, (S)-2-(4-Fluoro-phenyl)-4-oxo-3,4-dihydro-2H-pyridine-1-carboxylic acid (2-bromo-4-chloro-5-hydroxymethyl-phenyl)-amide]
7.98	Cc1cc(C)c(Br)c(NC(=O)N2C=CC(=O)C[C@H]2c2ccc(F)cc2)c1 [Compound 99, (S)-2-(4-Fluoro-phenyl)-4-oxo-3,4-dihydro-2H-pyridine-1-carboxylic acid (2-bromo-3,5-dimethyl-phenyl)-amide]
7.05	COc1ccc(NC(=O)N2C=CC(=O)C[C@H]2c2ccc(F)cc2)c(C)c1 [Compound 100, (S)-2-(4-Fluoro-phenyl)-4-oxo-3,4-dihydro-2H-pyridine-1-carboxylic acid (4-methoxy-2-methyl-phenyl)-amide]
7.57	Cn1ccc2ccc(NC(=O)N3C=CC(=O)C[C@H]3c3ccc(F)cc3)cc21 [Compound 101, (S)-2-(4-Fluoro-phenyl)-4-oxo-3,4-dihydro-2H-pyridine-1-carboxylic acid (1-methyl-1H-indol-6-yl)-amide]
6.56	Cc1cc2cccnc2cc1NC(=O)N1C=CC(=O)C[C@H]1c1ccc(F)cc1 [Compound 102, (S)-2-(4-Fluoro-phenyl)-4-oxo-3,4-dihydro-2H-pyridine-1-carboxylic acid (6-methyl-quinolin-7-yl)-amide]
7.415	Cc1ccc(NC(=O)N2C=CC(=O)C[C@H]2c2ccc(F)cc2)c(C)c1 [Compound 103, (S)-2-(4-Fluoro-phenyl)-4-oxo-3,4-dihydro-2H-pyridine-1-carboxylic acid (2,4-dimethyl-phenyl)-amide]
7.655	Cc1cc(C)cc(NC(=O)N2C=CC(=O)C[C@H]2c2ccc(F)cc2)c1 [Compound 104, (S)-2-(4-Fluoro-phenyl)-4-oxo-3,4-dihydro-2H-pyridine-1-carboxylic acid (3,5-dimethyl-phenyl)-amide]
5.91	COc1ccccc1NC(=O)N1C=CC(=O)CC1c1ccc(F)cc1 (stereo not shown) [Compound 105, 2-(4-Fluoro-phenyl)-4-oxo-3,4-dihydro-2H-pyridine-1-carboxylic acid (2-methoxy-phenyl)-amide]
7.785	O=C1C=CN(C(=O)Nc2ccc3ncccc3c2Br)[C@H](c2ccc(F)cc2)C1 [Compound 106, (S)-2-(4-Fluoro-phenyl)-4-oxo-3,4-dihydro-2H-pyridine-1-carboxylic acid (5-bromo-quinolin-6-yl)-amide]
7.095	Cc1cc2nccnc2cc1NC(=O)N1C=CC(=O)C[C@H]1c1ccc(F)cc1 [Compound 107, (S)-2-(4-Fluoro-phenyl)-4-oxo-3,4-dihydro-2H-pyridine-1-carboxylic acid (7-methyl-quinoxalin-6-yl)-amide]
